According to patent publication US20230120597A1, “CO-AGONISTS AT GLP-1 AND GIP RECEPTORS SUITABLE FOR ORAL DELIVERY” (Novo Nordisk A/S, priority 2020, published 2023):
Like-named read-outs stand apart in the source and are kept apart here. Starred links: 1 amine or outer side, 2 acyl side, 3 side chain; linkers in the order of their positions; H or OH if unused. Non-standard residues stand in square brackets, D forms with d. Residues, ends and D or L forms follow the SMILES beside them. Groups on a side chain read outwards from the residue. *: point of attachment. C18 diacid = O=C(O)CCCCCCCCCCCCCCCCC(=O)*; γGlu = O=C(O)[C@H](CCC(=O)[*:2])N[*:1]; εLys = N[C@@H](CCCCN[*:1])C(=O)[*:2]; Aib = CC(C)(N)C(=O)O

What was measured:
[1] = molecular target: T1, human GLP-1 receptor (Homo sapiens, UniProt P43220); experiment: In vitro functional potency, CRE luciferase reporter gene assay, whole BHK cells expressing hGLP-1R; type: cell-based; details: BHK CRE luc2P hGLP-1R cells
T1 construct: expressed in transfected cells; host or cells: BHK (parent line BHKTS13), clone BHK CRE luc2P hGLP-1R

[2] = Pharmacokinetic study in dogs, oral dosing of tablet compositions with SNAC; type: in vivo, Beagle dogs; details: male, beagle, dog, in vivo, po
Procedure, shortened: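 The tablets held 3-4 mg compound plus 100-300 mg SNAC and were given to fasted male beagles (6-8 per group); non-compartmental PK per animal.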

T1 sequence (P43220 24-463): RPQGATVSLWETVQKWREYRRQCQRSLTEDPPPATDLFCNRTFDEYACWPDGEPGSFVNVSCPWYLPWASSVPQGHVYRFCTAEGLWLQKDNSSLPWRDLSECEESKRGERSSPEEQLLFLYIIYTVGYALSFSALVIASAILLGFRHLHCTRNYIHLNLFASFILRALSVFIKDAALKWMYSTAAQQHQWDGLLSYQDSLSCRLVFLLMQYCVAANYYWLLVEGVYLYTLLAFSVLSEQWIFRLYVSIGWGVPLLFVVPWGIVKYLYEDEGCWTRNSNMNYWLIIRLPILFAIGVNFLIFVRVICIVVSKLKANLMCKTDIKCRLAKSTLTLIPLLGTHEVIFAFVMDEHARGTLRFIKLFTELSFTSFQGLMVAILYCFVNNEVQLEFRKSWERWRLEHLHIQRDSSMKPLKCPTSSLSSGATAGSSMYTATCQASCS

`CC[C@H](C)[C@H](NC(=O)[C@H](Cc1ccccc1)NC(=O)[C@H](CCC(=O)O)NC(=O)[C@H](CCCNC(=N)N)NC(=O)[C@H](C)NC(=O)[C@H](C)NC(=O)[C@H](CCC(N)=O)NC(=O)[C@H](CCCCNC(=O)[C@@H](N)CCCCNC(=O)[C@@H](N)CCCCNC(=O)CC[C@H](NC(=O)CCCCCCCCCCCCCCCCC(=O)O)C(=O)O)NC(=O)[C@H](CCC(=O)O)NC(=O)[C@H](CC(C)C)NC(=O)[C@H](CC(C)C)NC(=O)[C@@H](NC(=O)[C@H](CO)NC(=O)[C@H](Cc1ccc(O)cc1)NC(=O)[C@H](CC(=O)O)NC(=O)[C@H](CO)NC(=O)[C@@H](NC(=O)[C@H](Cc1ccccc1)NC(=O)[C@@H](NC(=O)CNC(=O)[C@H](CCC(=O)O)NC(=O)C(C)(C)NC(=O)[C@@H](N)Cc1ccc(O)cc1)[C@@H](C)O)[C@@H](C)O)[C@@H](C)CC)C(=O)N[C@@H](CC(N)=O)C(=O)N[C@@H](Cc1c[nH]c2ccccc12)C(=O)N[C@@H](CC(C)C)C(=O)N[C@@H](CC(C)C)C(=O)N[C@@H](C)C(=O)NCC(=O)NCC(=O)N1CCC[C@H]1C(=O)N[C@@H](CO)C(=O)N[C@@H](CO)C(=O)NCC(=O)N[C@@H](C)C(=O)N1CCC[C@H]1C(=O)N1CCC[C@H]1C(=O)N1CCC[C@H]1C(=O)N[C@@H](CO)C(=O)O` [Compound No. 15] (H-Y[Aib]EGTFTSDYSILLEK([εLys-εLys-γGlu-C18 diacid])QAAREFINWLLAGGPSSGAPPPS-OH) showed an EC50 ([1]; 0% HSA, read-out: hGLP-1R, CRE Luc 0% HSA EC50) of 0.005 nM, an EC50 ([1]; hGLP-1R, CRE Luc 1% HSA EC50, 1% HSA) of 0.13 nM and a Tmax ([2]; Tmax) of 1.5 h. It also gave a half-life ([2]; t1/2) of 59 h.
